Experiment [1] has as its system Human research corneas (de-epithelialized, 8.5-mm buttons) in collagenase A. As to the kind of experiment: Resistance to collagenase A digestion (time to total dissolution of cornea buttons). The following applies: 0.3% collagenase A, 37° C.; for Collagenase time to dissolution: 150 rpm, ex vivo de-epithelialized corneas, n=5, mean ± SD; for time to dissolution in collagenase A: untreated corneas 5.47 ± 0.21 hours. The text has this: Human research corneas were obtained from Tissue Bank International (Baltimore, Md.) and North Carolina Eye Bank (Winston-Salem, N.C.). Riboflavin 5′-phosphate sodium salt hydrate, 20% (w/w) dextran solution (from Leuconostoc mesenteroides) and collagenase A (from Clostridium histolyticum, E.C. 3.4.24.3) were obtained from Sigma Aldrich (St. Louis, Mo.). Barron® artificial anterior chambers were purchased from Katena Eye Instruments (Denville, N.J.). The VEGA LED-based UV emitter was purchased from Costruzione Strumenti Oftalmici (Firenze, Italy). The Excells E24 incubator shaker series was purchased from New Brunswick Scientific (Enfield, Conn.).
The corneas were obtained in OptiZol® solution and stored at 4° C. until use. All experiments were performed within 2 weeks from the date of death of the donor. Each cornea was fitted into a Barron® artificial anterior chamber with normal balanced salt solution followed by mechanical removal of 8 mm of the central corneal epithelium with a blunt blade.
Conventional riboflavin-UVA (R+UVA) crosslinking was performed in an ex vivo fashion according to the Dresden protoco.^1-2 50 mg of riboflavin 5′-phosphate was added to 50 mL of dextran (w/w) and mixed thoroughly to make 0.1% riboflavin (1 mg/mL) solution. All solutions were covered in aluminum foil for protection from room UV light and stored at 4° C. until use. Riboflavin solution was topically administered every 5 minutes onto the surface of the de-epithelialized cornea for total instillation period of 30 minutes. UVA 370 nm light (X-Vega, Sooft SPA) was then focused onto the surface of the cornea at an irradiance of 3 mW/cm^2 (5.4 J/cm^2 fluence) for 5 minutes. The five-minute UVA exposure sequence was repeated 5 more times for a total UVA exposure time of 30 minutes. Prior to each 5-minute UVA treatment sequence, one drop of balanced salt solution and one drop of riboflavin were administered onto the surface of the cornea.
Each de-epithelialized cornea was placed on a Barron® artificial anterior chamber and underwent a treatment protocols (below) that included either topical verteporfin solution alone, non-thermal laser alone, or a combination of both topical verteporfin and non-thermal laser. Verteporfin solution was applied topically using the same formulation that is administered intravenously for the treatment of choroidal neovascularization^3-8 (6 mg/mL, Visudyne; Novartis Ophthalmics AG, Hettingen, Switzerland). A 689 nm wavelength non-thermal laser (Opal Photoactivator; Coherent Inc., Santa Clara, Calif.) was applied using a spot size of 7 mm at a power intensity of 600 mW/cm^2.
1. Topical verteporfin (V), without laser: Verteporfin solution was topically administered onto the surface of a de-epithelialized cornea every minute for 15 minutes. The tissue was not exposed to laser therapy.
3. Combined treatment of verteporfin with non-thermal laser for one treatment sequence (V+NTL-1): Verteporfin, which was prepared at a dose of 6 mg/ml (one drop per minute) was applied onto the de-epithelialized corneas every minute for fifteen minutes followed by one NTL treatment sequence. A 689 nm nonthermal laser light was delivered directly over a cornea with spot sizes (7 mm) at a power intensity of 600 mW/cm^2 for one minute only.
4. Combined treatment of Verteporfin with Non-Thermal Laser Therapy for six treatment sequences (V+NTL-6): Verteporfin solution (6 mg/ml) was topically applied every minute for fifteen minutes followed by six NTL sequences. One drop of balanced salt solution and one drop of verteporfin was administered between each treatment sequence. […]

The subject of experiment [2] is Human research corneas. As to the kind of experiment: Gross observation of corneal rigidity / curvature. Conditions: for Gross observation: ex vivo treated corneas; for rigidity on gross examination versus untreated corneas: cornea strips placed horizontally in a clamp (FIG. 3). The method, then: (§1) The biomechanical properties of untreated corneas and corneas treated with R+UVA and V+NTL6 were measured using gross observation, compression, creep and tensile strength testing. The corneas were stored in Optisol GS and refrigerated at 4° C. until the time of testing.
For example, when cornea strips were placed horizontally in a clamp, the tissue treated by V+NTL6 and by R+UVA were noted to have a more pronounced curvature than the untreated control group (FIG. 3).

Experiment [3] has as its system Human research corneas. As to the kind of experiment: Compression testing (Q800 DMA), Young's modulus. The following applies: for slope of the stress-strain compression data versus untreated corneas: FIG. 5; for Young's modulus: linear fit of stress-strain curve between 0.08 and 0.10 MPa, untreated 0.43 MPa. The method, then: as §1
Compression testing was performed using a Q800 DMA (TA instruments). The tissue was placed within a submersion clamp and centered beneath a custom 8 mm diameter compression plate, as shown in FIG. 2. The submersion clamp was filled with 1× phosphate buffered saline (PBS) solution to prevent the sample from drying out during the test.
The elasticity of any tissue can be determined by measuring the stress (force on a cross-section point) and its relative strain (proportional deformation)^12,14. The Young's modulus is the proportion between the stress and strain values and reflects the elasticity of the tissue. A small Young's modulus value reflects more elasticity of a material and is represented in units of Newton/m^2.
Young's modulus was calculated as a linear fit of the final portion of the stress-strain curve, between stress values of 0.08 and 0.10 MPa (FIG. 6). Tissue treated by R+UVA and V+NTL6 had statistically larger moduli than untreated corneas. Corneas treated by V+NTL6 appeared to be slightly more stiff (0.80 vs 0.43 MPa, p<0.005) than those treated by R+UVA (0.70 vs 0.43 MPa, p<0.05), however this difference was not statistically significant.

Experiment [4] relates to Human research corneas (corneal strips). As to the kind of experiment: Tensile strength testing (strip extensometry). The following applies: for maximum stress observed prior to failure: tensile test at 0.025 mm/sec until failure, untreated 3.02 (FIG. 8); for maximum modulus value (tensile): versus untreated corneas (FIG. 9B); for instantaneous modulus values at 4%, 6%, and 8% strain (toe region): versus untreated corneas (FIG. 11). The method, then: as §1
A rectangular strip of corneal tissue (approximately 3 mm wide and 14 mm long) was cut from each sample with a scalpel. The corneal strips were individually clamped between the two jaws of a microcomputer-controlled biomaterial tester (Minimat, Rheometriv Scientific GmbH).^15-20 Tensile testing was performed using a Shimadzu AGS-X (Cambridge Polymer Group, Inc. 56 Roland St suite 310, Boston, Mass. 02129, United States) load frame equipped with a 50 N load cell and pneumatic grips, which were lined with sandpaper for prevent tissue slippage. The pneumatic grips compensated for any dimensional change as the samples were stretched and allowed a fixed grip pressure of 35 pressure per square inch (psi) to be applied. The initial grip separation was set to 4.5 mm and tested at a rate of 0.025 mm/sec until failure. The strain (ε) was then increased linearly at a certain velocity, and the relative stress (s) was measured.
In this study, strip extensometry was performed using rectangular strips of corneal tissue that was extracted from untreated and treated corneas. The maximum stress observed prior to failure, the maximum modulus values, and the instantaneous modulus values at specific strain percentages were calculated. The stress-strain data can be broadly separated into two regions: an initial toe region that covers strain values typically observed in vivo, and the region covering extreme deformations not likely to be observed in vivo.
Finally, the initial toe region of each sample group was compared. The stress-strain data was offset such that the sample length at a stress of 0.02 MPa was defined as 0% strain (this offset is equivalent to defining a pre-stress of […] at the start of the tensile test). A representative plot showing the toe region of the tensile data for one specimen from each sample group is shown in FIG. 10, and the instantaneous modulus values at 4%, 6%, and 8% strain for each sample group are shown in FIG. 11.

Experiment [5] deals with Human research corneas. Nature of the experiment: Creep testing under constant force of 15 N. The following applies: constant force 15 N, between 0 and 4.25 minutes; untreated −3.46. As for the experimental part: The biomechanical properties of untreated corneas and corneas treated with R+UVA and V+NTL6 were measured using gross observation, compression, creep and tensile strength testing. The corneas were stored in Optisol GS and refrigerated at 4° C. until the time of testing. […] The sample was held under a constant force of 15 N and the strain was measured over a period of 4.25 minutes. Creep testing has been used to evaluate the biomechanical strength of tissue, such as the cornea, by applying a constant stress and monitoring the rate of deformation ^21In this study, cornea tissue was kept under a constant stress using a compression force of 15 N and then the slope of the strain-time curve was calculated between 0 and 4.25 minutes and represented the rate of tissue deformation.

With verteporfin, in experiment [1], the “Collagenase time to dissolution” value turned out to be 5.95 ± 0.33 h and the “time to dissolution in collagenase A” value is 5.95 h. Also, the Gross observation result in experiment [2] was “No rigidity”.

As to `Cc1cc2nc3c(=O)[nH]c(=O)nc-3n(C[C@H](O)[C@H](O)[C@H](O)COP(=O)([O-])O)c2cc1C.[Na+]` [R+UVA, Riboflavin 5′-phosphate sodium salt hydrate], in experiment [3], the “slope of the stress-strain compression data versus untreated corneas” value is “steeper” and the “Young's modulus” value is on record as 0.70 MPa. Moreover, the “time to dissolution in collagenase A” value in experiment [1] (listed as riboflavin-UVA, sodium salt hydrate) came out at 20.06 ± 1.23 h. In addition, the “time to dissolution in collagenase A” value in experiment [1] (sodium salt hydrate) came to 20.06 h. Also, in experiment [4], the “maximum stress observed prior to failure” value was “larger stress values prior to failure”; the “maximum modulus value (tensile)” value is recorded as “statistically larger maximum modulus values than untreated corneas”; the “instantaneous modulus values at 4%, 6%, and 8% strain (toe region)” value was “no statistically significant difference was observed”. Besides, the “rigidity on gross examination versus untreated corneas” value in experiment [2] is “much more rigidity than untreated corneas”. For the same compound, in experiment [5], the “creep rate (slope of the strain-time curve)” value is given as “faster creep rate, but the difference was not statistically significant”.

In the case of verteporfin [V+NTL6], in experiment [3], the “slope of the stress-strain compression data versus untreated corneas” value is listed as “steeper” and the “Young's modulus” value is 0.80 MPa. In addition, in experiment [1] (listed as V-NLT-6), the “Collagenase time to dissolution” value is 19.75 ± 0.95 h. In addition, the “time to dissolution in collagenase A” value in experiment [1] is 19.75 ± 0.95 h. Further, in experiment [4], the “maximum stress observed prior to failure” value came to 7.67; the “maximum modulus value (tensile)” value is on record as “statistically larger maximum modulus values than untreated corneas”; the “instantaneous modulus values at 4%, 6%, and 8% strain (toe region)” value is on record as “statistically larger modulus values than untreated corneas”. For the same compound, the “rigidity on gross examination versus untreated corneas” value in experiment [2] is “much more rigidity than untreated corneas”. For the same compound, the Gross observation entry in experiment [2] (listed as V-NLT-6) is on record as “Cornea rigid”. Further, the “creep rate (slope of the strain-time curve)” value in experiment [5] is −1.87.

In the case of verteporfin [V+NTL1], the “Collagenase time to dissolution” value in experiment [1] (listed as V-NLT-1) turned out to be 5.96 ± 0.39 h. Also, the “time to dissolution in collagenase A” value in experiment [1] is 5.96 ± 0.39 h. In experiment [2] (listed as V-NLT-1), the Gross observation result is recorded as “No rigidity”.

(Values after patent US10918719B2, “Methods for cross-linking corneal collagen with verteporfin for the treatment of disorders of the eye” (Massachusetts Eye and Ear Infirmary, priority 2014, dated 2021).)
